Data from ChEMBL document CHEMBL4334438, “Discovery of novel glycogen synthase kinase-3α inhibitors: Structure-based virtual screening, preliminary SAR and biological evaluation for treatment of acute myeloid leukemia” (Eur J Med Chem, 2019).

How the values were obtained:
[1] = system: Tyrosine-protein kinase ABL1 (Homo sapiens), P00519 [M351T]; assay: Inhibition of human ABL1 M351T mutant (27 to end residues) assessed as residual activity at 1 uM using EAIYAAPFAKKK as substrate incubated for 40 mins in presence of [gamma-33ATP] by scintillation counting based radiometry assay relative to control
[2] = target: Cytoplasmic tyrosine-protein kinase BMX (Homo sapiens) (UniProt P51813); assay: Inhibition of recombinant full length human BMX assessed as residual activity at 1 uM using poly(Glu, Tyr) 4:1 as substrate incubated for 40 mins in presence of [gamma-33ATP] by scintillation counting based radiometry assay relative to control
[3] = target: Calcium/calmodulin-dependent protein kinase type 1G (Homo sapiens) (UniProt Q96NX5); assay: Inhibition of recombinant full length human CaMKIgamma assessed as residual activity at 1 uM using KKLRRTLSFAEPG as substrate incubated for 40 mins in presence of [gamma-33ATP] by scintillation counting based radiometry assay relative to control
Sequence of Calcium/calmodulin-dependent protein kinase type 1G (Homo sapiens) (Q96NX5 whole entry): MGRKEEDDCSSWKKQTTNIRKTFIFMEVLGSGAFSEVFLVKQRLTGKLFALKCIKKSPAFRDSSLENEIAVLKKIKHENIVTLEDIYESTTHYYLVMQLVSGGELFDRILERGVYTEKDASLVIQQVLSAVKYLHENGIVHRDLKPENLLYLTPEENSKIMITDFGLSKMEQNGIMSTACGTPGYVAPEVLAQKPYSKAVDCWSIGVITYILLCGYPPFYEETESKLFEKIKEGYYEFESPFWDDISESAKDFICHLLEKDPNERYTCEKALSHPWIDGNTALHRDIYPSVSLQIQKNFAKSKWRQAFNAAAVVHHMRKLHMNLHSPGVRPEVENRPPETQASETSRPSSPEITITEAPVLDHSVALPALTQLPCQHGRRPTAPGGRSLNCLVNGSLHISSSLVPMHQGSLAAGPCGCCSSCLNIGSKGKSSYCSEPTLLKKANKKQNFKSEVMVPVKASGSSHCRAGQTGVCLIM

[4] = target: Cyclin-dependent kinase-like 3 (Homo sapiens) (UniProt Q8IVW4); assay: Inhibition of recombinant full length human CDKL3 assessed as residual activity at 1 uM using RRRFRPASPLRGPPK as substrate incubated for 120 mins in presence of [gamma-33ATP] by scintillation counting based radiometry assay relative to control
[5] = target: Casein kinase I isoform gamma-1 (Homo sapiens) (UniProt Q9HCP0); assay: Inhibition of recombinant human CK1gamma1 (25 to 355 residues) assessed as residual activity at 1 uM using KRRRALS(p)VASLPGL as substrate measured after 40 mins in presence of [gamma33P]ATP by scintillation counting method
Sequence of Casein kinase I isoform gamma-1 (Homo sapiens) (Q9HCP0 whole entry, looked up, the tested form may be a part, canonical isoform): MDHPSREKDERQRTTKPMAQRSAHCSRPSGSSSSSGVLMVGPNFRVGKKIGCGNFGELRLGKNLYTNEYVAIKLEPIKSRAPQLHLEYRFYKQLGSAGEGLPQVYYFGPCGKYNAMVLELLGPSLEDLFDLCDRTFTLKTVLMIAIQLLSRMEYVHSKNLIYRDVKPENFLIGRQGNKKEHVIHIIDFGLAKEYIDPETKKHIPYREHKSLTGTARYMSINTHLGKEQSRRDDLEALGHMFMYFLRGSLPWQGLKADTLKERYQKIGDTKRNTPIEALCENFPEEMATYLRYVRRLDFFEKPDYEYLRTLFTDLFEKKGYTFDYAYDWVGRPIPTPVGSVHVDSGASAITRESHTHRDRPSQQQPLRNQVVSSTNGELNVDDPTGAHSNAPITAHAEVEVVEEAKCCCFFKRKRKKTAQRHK

[6] = target: Dual specificity protein kinase CLK1 (Homo sapiens) (UniProt P49759); assay: Inhibition of recombinant human CLK1 (130 to end residues) assessed as residual activity at 1 uM using ERMRPRKRQGSVR as substrate incubated 40 mins in presence of [gamma-33ATP] by scintillation counting based radiometry assay relative to control
Sequence of Dual specificity protein kinase CLK1 (Homo sapiens) (P49759 whole entry, looked up, the tested form may be a part): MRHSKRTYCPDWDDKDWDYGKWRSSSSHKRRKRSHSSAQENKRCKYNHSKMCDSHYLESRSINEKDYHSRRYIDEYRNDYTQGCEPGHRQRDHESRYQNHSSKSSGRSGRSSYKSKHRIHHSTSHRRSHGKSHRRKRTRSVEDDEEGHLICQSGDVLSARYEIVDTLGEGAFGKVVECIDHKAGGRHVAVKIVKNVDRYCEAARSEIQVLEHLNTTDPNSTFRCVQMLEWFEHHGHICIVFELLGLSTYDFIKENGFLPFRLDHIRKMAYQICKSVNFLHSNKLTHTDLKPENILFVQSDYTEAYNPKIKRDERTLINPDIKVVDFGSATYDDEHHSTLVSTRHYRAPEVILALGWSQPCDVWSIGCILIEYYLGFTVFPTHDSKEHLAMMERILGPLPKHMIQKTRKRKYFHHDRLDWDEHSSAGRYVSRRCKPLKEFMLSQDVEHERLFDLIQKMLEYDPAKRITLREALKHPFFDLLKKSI

[7] = target: Ephrin type-A receptor 2 (Homo sapiens) (UniProt P29317); assay: Inhibition of recombinant human EphA2 (596 to 900 residues) assessed as residual activity at 1 uM using poly(Glu, Tyr) 4:1 as substrate at 40 mins in presence of [gamma-33ATP] by scintillation counting based radiometry assay relative to control
[8] = target: Homeodomain-interacting protein kinase 4 (Homo sapiens) (UniProt Q8NE63); assay: Inhibition of human HIPK4 assessed as residual activity at 1 uM using RRRFRPASPLRGPPK as substrate after 40 mins by [gamma-33ATP] radiometric assay relative to control
[9] = target: Mitogen-activated protein kinase kinase kinase kinase 1 (Homo sapiens) (UniProt Q92918); assay: Inhibition of human HPK1 (1 to 346 residues) assessed as residual activity at 1 uM using myelin basic protein as substrate after 40 mins by [gamma-33ATP] radiometric assay relative to control
Sequence of Mitogen-activated protein kinase kinase kinase kinase 1 (Homo sapiens) (Q92918 whole entry, looked up, the tested form may be a part): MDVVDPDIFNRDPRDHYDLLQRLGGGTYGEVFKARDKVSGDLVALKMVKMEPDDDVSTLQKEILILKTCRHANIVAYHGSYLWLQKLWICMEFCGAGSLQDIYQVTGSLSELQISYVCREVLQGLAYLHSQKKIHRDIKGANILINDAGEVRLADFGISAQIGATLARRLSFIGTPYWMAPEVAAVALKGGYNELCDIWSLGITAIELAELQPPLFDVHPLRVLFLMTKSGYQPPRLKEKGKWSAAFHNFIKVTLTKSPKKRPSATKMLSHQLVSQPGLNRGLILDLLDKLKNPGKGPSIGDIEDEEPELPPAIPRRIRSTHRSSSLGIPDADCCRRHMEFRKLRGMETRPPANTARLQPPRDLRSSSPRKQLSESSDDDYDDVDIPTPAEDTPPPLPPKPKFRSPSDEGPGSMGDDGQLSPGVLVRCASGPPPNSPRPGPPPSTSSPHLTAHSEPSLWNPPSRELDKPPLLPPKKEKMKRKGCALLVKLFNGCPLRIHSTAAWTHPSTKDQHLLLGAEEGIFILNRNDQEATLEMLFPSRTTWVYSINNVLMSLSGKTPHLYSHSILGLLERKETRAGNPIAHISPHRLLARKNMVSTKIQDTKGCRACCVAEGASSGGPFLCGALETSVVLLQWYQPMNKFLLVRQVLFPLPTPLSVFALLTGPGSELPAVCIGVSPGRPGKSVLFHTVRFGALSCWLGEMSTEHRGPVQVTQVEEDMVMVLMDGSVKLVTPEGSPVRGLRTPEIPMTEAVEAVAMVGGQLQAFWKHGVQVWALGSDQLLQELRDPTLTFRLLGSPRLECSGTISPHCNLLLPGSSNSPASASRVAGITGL

[10] = species on record: Homo sapiens; assay: Inhibition of recombinant human MAPKAPK2 A399G mutant (46 to end residues) assessed as residual activity at 1 uM using KKLNRTLSVA as substrate incubated for 40 mins in presence of [gamma-33ATP by scintillation counting based radiometry assay relative to control
[11] = target: Dual specificity mitogen-activated protein kinase kinase 6 (Homo sapiens) (UniProt P52564); assay: Inhibition of recombinant human MKK6 (4 to end residues) assessed as residual activity at 1 uM using unactive SAPK2a as substrate measured after 40 mins in presence of [gamma33P]ATP by scintillation counting method
Sequence of Dual specificity mitogen-activated protein kinase kinase 6 (Homo sapiens) (P52564 whole entry, the tested form may be a part): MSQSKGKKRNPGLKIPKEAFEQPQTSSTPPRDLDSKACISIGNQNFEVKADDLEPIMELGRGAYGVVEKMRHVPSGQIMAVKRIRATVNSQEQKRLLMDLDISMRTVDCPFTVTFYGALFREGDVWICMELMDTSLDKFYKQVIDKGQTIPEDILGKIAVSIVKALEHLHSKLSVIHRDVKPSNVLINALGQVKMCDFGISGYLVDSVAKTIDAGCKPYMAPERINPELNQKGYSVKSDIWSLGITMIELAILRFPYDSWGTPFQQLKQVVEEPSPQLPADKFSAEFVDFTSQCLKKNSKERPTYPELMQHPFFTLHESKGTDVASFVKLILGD

[12] = target: PAS domain-containing serine/threonine-protein kinase (Homo sapiens) (UniProt Q96RG2); assay: Inhibition of recombinant human PASK (995 to end residues) assessed as residual activity at 1 uM using KKLNRTLSFAEPG as substrate measured after 40 mins in presence of [gamma33P]ATP by scintillation counting method relative to control
[13] = target: [Pyruvate dehydrogenase (acetyl-transferring)] kinase isozyme 2, mitochondrial (Homo sapiens) (UniProt Q15119); assay: Inhibition of human PDHK2 assessed as residual activity at 1 uM by radiometric method
[14] = target: Serine/threonine-protein kinase pim-2 (Homo sapiens) (UniProt Q9P1W9); assay: Inhibition of recombinant human Pim2 (2 to end residues) assessed as residual activity at 1 uM using RSRHSSYPAGT as substrate measured after 40 mins in presence of [gamma33P]ATP by scintillation counting method relative to control
[15] = target: Protein kinase C alpha type (Homo sapiens) (UniProt P17252); assay: Inhibition of recombinant human full length PKCalpha assessed as residual activity at 1 uM using histone H1 as substrate measured after 40 mins in presence of [gamma33P]ATP by scintillation counting method relative to control
[16] = target: Protein kinase C theta type (Homo sapiens) (UniProt Q04759); assay: Inhibition of recombinant full length human PKCtheta assessed as residual activity at 1 uM using histone H1 as substrate measured after 40 mins in presence of [gamma33P]ATP by scintillation counting method relative to control
[17] = target: Tyrosine-protein kinase FRK (Homo sapiens) (UniProt P42685); assay: Inhibition of recombinant human PTK5 (218 to end residues) assessed as residual activity at 1 uM using GGEEEEYFELVKKKK as substrate measured after 40 mins in presence of [gamma33P]ATP by scintillation counting method relative to control
Sequence of Tyrosine-protein kinase FRK (Homo sapiens) (P42685 whole entry): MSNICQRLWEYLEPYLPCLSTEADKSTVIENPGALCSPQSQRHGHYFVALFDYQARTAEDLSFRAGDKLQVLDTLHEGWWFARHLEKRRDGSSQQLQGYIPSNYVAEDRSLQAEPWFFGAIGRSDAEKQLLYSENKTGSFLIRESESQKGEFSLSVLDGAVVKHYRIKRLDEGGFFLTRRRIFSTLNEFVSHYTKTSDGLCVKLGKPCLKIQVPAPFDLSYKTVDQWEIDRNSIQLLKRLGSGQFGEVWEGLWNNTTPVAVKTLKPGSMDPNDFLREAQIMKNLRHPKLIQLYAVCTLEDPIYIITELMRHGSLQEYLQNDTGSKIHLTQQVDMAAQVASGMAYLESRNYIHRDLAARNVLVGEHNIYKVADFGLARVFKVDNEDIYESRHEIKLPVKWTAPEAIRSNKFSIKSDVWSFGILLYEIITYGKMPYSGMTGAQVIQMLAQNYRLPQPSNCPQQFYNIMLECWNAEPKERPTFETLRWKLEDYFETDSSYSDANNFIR

[18] = system: Proto-oncogene tyrosine-protein kinase receptor Ret (Homo sapiens), P07949 [V804L]; assay: Inhibition of recombinant human Ret V804L mutant (658 to end residues) assessed as residual activity at 1 uM using KKKSPGEYVNIEFG as substrate measured after 40 mins in presence of [gamma33P]ATP by scintillation counting method relative to control
[19] = target: Testis-specific serine/threonine-protein kinase 2 (Homo sapiens) (UniProt Q96PF2); assay: Inhibition of recombinant full-length human TSSK2 at 1 uM assessed as residual activity at 1 uM using KKKVSRSGLYRSPSMPENLNRPR as substrate measured after 40 mins in presence of [gamma33P]ATP by scintillation counting method relative to control
[20] = target: Tau-tubulin kinase 1 (Homo sapiens) (UniProt Q5TCY1); assay: Inhibition of human TTBK1 (1 to 479 residues) assessed as residual activity at 1 uM using Casein as substrate measured after 40 mins in presence of [gamma33P]ATP by scintillation counting method relative to control
Sequence of Tau-tubulin kinase 1 (Homo sapiens) (Q5TCY1 whole entry, the tested form may be a part): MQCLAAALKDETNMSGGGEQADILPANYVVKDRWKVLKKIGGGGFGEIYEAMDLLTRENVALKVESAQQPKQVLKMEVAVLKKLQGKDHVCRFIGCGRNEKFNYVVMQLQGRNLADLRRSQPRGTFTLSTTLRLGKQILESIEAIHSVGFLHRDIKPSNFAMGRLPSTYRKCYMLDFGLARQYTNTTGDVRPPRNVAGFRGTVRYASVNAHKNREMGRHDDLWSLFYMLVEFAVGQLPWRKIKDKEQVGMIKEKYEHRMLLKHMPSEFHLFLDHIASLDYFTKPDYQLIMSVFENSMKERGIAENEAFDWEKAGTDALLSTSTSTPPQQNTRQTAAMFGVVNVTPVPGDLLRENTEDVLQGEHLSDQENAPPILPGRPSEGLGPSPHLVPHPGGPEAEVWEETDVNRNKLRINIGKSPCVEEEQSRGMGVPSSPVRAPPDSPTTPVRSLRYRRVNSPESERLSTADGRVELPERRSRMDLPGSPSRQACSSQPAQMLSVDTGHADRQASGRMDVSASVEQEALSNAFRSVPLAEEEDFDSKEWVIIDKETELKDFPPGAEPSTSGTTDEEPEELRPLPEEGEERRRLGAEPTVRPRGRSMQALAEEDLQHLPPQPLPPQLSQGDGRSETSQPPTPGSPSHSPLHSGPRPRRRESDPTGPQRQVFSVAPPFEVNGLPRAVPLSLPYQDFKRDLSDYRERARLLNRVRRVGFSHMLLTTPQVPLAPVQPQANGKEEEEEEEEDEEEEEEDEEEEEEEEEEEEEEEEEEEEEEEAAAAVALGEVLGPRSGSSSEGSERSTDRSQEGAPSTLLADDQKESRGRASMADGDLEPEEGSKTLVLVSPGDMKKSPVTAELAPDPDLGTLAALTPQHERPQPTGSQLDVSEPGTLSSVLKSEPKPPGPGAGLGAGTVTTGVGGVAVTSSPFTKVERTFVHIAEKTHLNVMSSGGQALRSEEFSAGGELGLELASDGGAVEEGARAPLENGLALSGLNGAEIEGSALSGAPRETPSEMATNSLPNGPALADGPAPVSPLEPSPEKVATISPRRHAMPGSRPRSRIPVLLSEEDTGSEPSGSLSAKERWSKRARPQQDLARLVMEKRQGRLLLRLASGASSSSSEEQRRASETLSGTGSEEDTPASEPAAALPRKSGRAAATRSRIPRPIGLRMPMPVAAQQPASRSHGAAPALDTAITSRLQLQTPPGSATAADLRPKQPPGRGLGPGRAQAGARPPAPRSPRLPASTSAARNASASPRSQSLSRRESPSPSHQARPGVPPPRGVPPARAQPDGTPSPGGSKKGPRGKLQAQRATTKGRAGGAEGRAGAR

[21] = target: Serine/threonine-protein kinase ULK3 (Homo sapiens) (UniProt Q6PHR2); assay: Inhibition of recombinant full-length human ULK3 at 1 uM assessed as residual activity at 1 uM using casein as substrate measured after 40 mins in presence of [gamma33P]ATP by scintillation counting method relative to control
[22] = target: Phosphatidylinositol 4-phosphate 5-kinase type-1 alpha (Homo sapiens) (UniProt Q99755); assay: Inhibition of recombinant full-length human PIP5K1alpha at 1 uM assessed as residual activity at 1 uM using phosphatidylinositol 4-phosphate as substrate measured after 40 mins by HTRF assay

Compound	Activity [1] [%]	Activity [2] [%]	Activity [3] [%]	Activity [4] [%]	Activity [5] [%]	Activity [6] [%]	Activity [7] [%]	Activity [8] [%]	Activity [9] [%]	Activity [10] [%]	Activity [11] [%]	Activity [12] [%]	Activity [13] [%]	Activity [14] [%]	Activity [15] [%]	Activity [16] [%]	Activity [17] [%]	Activity [18] [%]	Activity [19] [%]	Activity [20] [%]	other results
C=CCOC(=O)c1cc(-c2ccc(/C=C3/NC(=S)NC3=O)o2)ccc1Cl	103	103	92	67	101	26	92	97	98	106	121	97	107	10	96	96	96	98	102	114	Activity [21]: 99%; Activity [22]: 98%
N=C1NC(=O)/C(=C\c2ccc(-c3cccc([N+](=O)[O-])c3)o2)S1	97	101	99	54	101	50	100	92	97	103	78	92	102	6	97	101	92	97	108	104	Activity [21]: 100%; Activity [22]: 102%
